Test results from patent US20220119379A1, “IMMUNOMODULATOR” (HITGEN INC., priority 2019, published 2022).
Where two headings read alike, the source gives them in different places.

Assays:
[1] = biological target: T1, Sting protein (Homo sapiens, UniProt Q86WV6, G230A/H232R/R293Q/R71H); experiment: Agonistic function test on Sting protein: IFN-β and CXCL10 (IP10) cytokines produced by THP1 cells (ELISA); type: cell-based; conditions: for EC50: 18 hours, ELISA of supernatant; for activity of stimulating IFN-β and CXCL10 (IP10) cytokines produced by THP1 cells (in words): listed compounds compared with the reference compound
T1 construct: endogenous in cells; host or cells: THP1 cells (Shanghai Cell Bank)
T1 sequence (Q86WV6 whole entry R71H/G230A/H232R/R293Q): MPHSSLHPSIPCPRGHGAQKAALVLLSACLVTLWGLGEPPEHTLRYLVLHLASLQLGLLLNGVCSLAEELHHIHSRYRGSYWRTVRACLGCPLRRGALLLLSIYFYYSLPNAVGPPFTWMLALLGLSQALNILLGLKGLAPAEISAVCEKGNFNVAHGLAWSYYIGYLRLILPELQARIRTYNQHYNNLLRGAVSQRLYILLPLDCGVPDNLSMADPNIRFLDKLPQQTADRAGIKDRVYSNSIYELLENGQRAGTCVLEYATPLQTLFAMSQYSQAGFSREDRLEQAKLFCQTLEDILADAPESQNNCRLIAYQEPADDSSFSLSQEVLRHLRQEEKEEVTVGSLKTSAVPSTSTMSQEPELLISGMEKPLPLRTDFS
Protocol: In this experiment, the function of sting agonist was evaluated by detecting the changes of IFN-β and CXCL10 (IP10) cytokines produced by human peripheral blood mononuclear cell line THP1 cells (Shanghai Cell Bank) stimulated by the compounds. On the first day of the experiment, the ELISA plate was coated according to the IFN-β (R&D, #DY814-05) and IP10 (BD, #550926) ELISA test kit instructions. The compound was dissolved into DMSO stock solution and diluted with culture medium to a 2× working concentration, added to a 96-well plate, 100 μL per well. The THP1 cells in the logarithmic growth phase were taken to count, and were diluted to a concentration of 2*10^6/mL, added to the above-mentioned 96-well plate containing the compounds, with […], per well, mixed well, and incubated in a 37° C., 5% CO2 incubator for 18 hours. On the second day, the above cell culture supernatant was taken, 100 μL per well, and tested according to IFN-β and IP10 ELISA test kits respectively. The OD450 value was read, and converted into IFN-β and IP10 concentration according to the standard curve, and fitted with GraphPad 5.0 to calculate the EC50 value of the dose-efficiency curve.

[2] = test system: CT26 cells; experiment: Tumor inhibitory effect, CT26 tumor re-excitation model; type: in vivo, mice
Protocol: The tumor regression of each group of mice in the CT26 anti-tumor efficacy model of the above experimental example 4 was further observed. After 30 days of the last administration, CT26 cells were inoculated subcutaneously on the back. Each mouse was inoculated with 100 μL cell suspension containing 5×10^5 cells; mice that have not been treated with drugs were used as a control group to inoculate CT26 cells in the same way. The tumor was observed and the growth of the tumor was recorded.

[3] = biological target: Sting protein (Homo sapiens, UniProt Q86WV6); experiment: Binding affinity test of the compound and Sting protein by protein thermal transfer test (TSA); conditions: Kd fitted from change of ΔTm with compound concentration
Chain of Sting protein (Homo sapiens, UniProt Q86WV6) (Q86WV6 whole entry H232R, species assumed): as the sequence (Q86WV6 whole entry R71H/G230A/H232R/R293Q) above, with H71R, A230G, Q293R counted along it
Protocol: The protein thermal transfer test (TSA) was used to determine the binding affinity of the compound to Sting protein. The 100 ug/ml Sting protein was mixed with different concentrations of the compound and 5× SYPRO Orange dye in a buffer of 20 mM Hepes, 150 mM NaCl, 1 mM MgCl2, 1 mM DTT, pH=7.5. The protein dissolution curve was measured on a qPCR instrument, the Tm value was fitted with Protein Thermal Shift Software 1.3 software, and the Tm difference of the protein was calculated when different concentrations of compound and no compound were added. The dissociation constant Kd was fitted and obtained according to the change of ΔTm with the concentration of the compound. […] The Kd value of each compound is classified according to the following instructions: […]

Structure (SMILES) | EC50 ([1]; read-out: IFN-β EC50) [µM] | EC50 ([1]; read-out: IP10 EC50) [µM] | activity of stimulating IFN-β and CXCL10 (IP10) cytokines produced by THP1 cells (in words) [1] | Kd [3] [µM] | tumor curve in CT26 tumor re-excitation model (FIG. 2) ([2]; 1.5 mg/kg) | tumor curve in CT26 tumor re-excitation model (FIG. 2) ([2]; 4.5 mg/kg) | tumor curve in CT26 tumor re-excitation model (FIG. 2) ([2]; 1 mg/kg) | tumor curve in CT26 tumor re-excitation model (FIG. 2) ([2]; 3 mg/kg)
CCc1nc(C)sc1C(=O)Nc1nc2cc(C(N)=O)cc(OC)c2n1C/C=C/Cn1c(NC(=O)c2cc(C)nn2CC)nc2cc(C(N)=O)cc(OCCCN3CCOCC3)c21 [Example 2, (E)-N-(5-carbamoyl-1-(4-(5-carbamoyl-2-(1-ethyl-3-methyl-1H-pyrazole-5-formylamino)-7-(3-morpholino)-1H-benzo[d]imidazol-1-yl)but-2-en-1-yl)-7-methoxy-1H-benzo[d]imidazol-2-yl)-4-ethyl-2-methylthiazole-5-formamide] | 0.01 to 0.1 | 0.01 to 0.1 | comparable or even higher activity | 1 to 10 | overlap | overlap |  | 
CCc1nc(C)sc1C(=O)Nc1nc2cc(C(N)=O)cc(OC)c2n1C/C=C/Cn1c(NC(=O)c2cc(C)nn2CC)nc2cc(C(N)=O)cc(OCCCN3CCN(C4CC4)CC3)c21 [Example 15] | 0.01 to 0.1 | 0.01 to 0.1 | comparable or even higher activity | 1 to 10 |  |  | overlap | overlap
CCn1nc(C)cc1C(=O)Nc1nc2cc(C(N)=O)cc(SC)c2n1C/C=C/Cn1c(NC(=O)c2c(F)c(C)nn2CC)nc2cc(C(N)=O)cc(OCCCN3CCOCC3)c21 [Example 51, (E)-1-(4-(5-(5-carbamoyl-2-)(1-styrene-3-methyl-1H-pyrazole-5-formylamino)-7-(methylthio)-1H-benzo[d]imidazol-1-yl)but-2-en-1-yl)-2-(1-styrene-4-fluoro-3-methyl-1H-pyrazole-5-anthralamido)-7-(3-morpholinopropoxy)-1H-benzo[d]imidazole-5-formylamide] | 0.01 to 0.1 | < 0.01 | comparable or even higher activity | 1 to 10 |  |  |  | 
CCc1nc(C)sc1C(=O)Nc1nc2cc(C(N)=O)cc(SC)c2n1C/C=C/Cn1c(NC(=O)c2c(F)c(C)nn2CC)nc2cc(C(N)=O)cc(OCCCN3CCOCC3)c21 [Example 52] | 0.01 to 0.1 | < 0.01 | comparable or even higher activity | 1 to 10 |  |  |  | 
CCn1nc(C)c(F)c1C(=O)Nc1nc2cc(C(N)=O)cc(OCCCN3CCOCC3)c2n1C/C=C/Cn1c(NC(=O)c2c(F)c(C)nn2CC)nc2cc(C(N)=O)cc(SC)c21 [Example 53, (E)-1-(4-(5-carbamoyl-2-(1-ethyl-4-fluoro-3-methyl-1H-pyrazole-5-carboxamino)-7-(3-morpholinopropoxy)-1H-benzo[d]imidazol-1-yl)but-2-en-1-yl)-2-(1-ethyl-4-fluoro-3-methyl-1H-pyrazole-5-formylamino)-7-(methylthio)-1H-benzo[d]imidazole-5-carboxamide] | 0.01 to 0.1 | < 0.01 | comparable or even higher activity | 1 to 10 |  |  |  | 

The next lines start with results.

EC50 ([1]; read-out: IFN-β EC50) [µM] | EC50 ([1]; read-out: IP10 EC50) [µM] | activity of stimulating IFN-β and CXCL10 (IP10) cytokines produced by THP1 cells (in words) [1] | Kd [3] [µM] | Structure (SMILES) | tumor curve in CT26 tumor re-excitation model (FIG. 2) ([2]; 1.5 mg/kg) | tumor curve in CT26 tumor re-excitation model (FIG. 2) ([2]; 4.5 mg/kg) | tumor curve in CT26 tumor re-excitation model (FIG. 2) ([2]; 1 mg/kg) | tumor curve in CT26 tumor re-excitation model (FIG. 2) ([2]; 3 mg/kg)
0.01 to 0.1 | < 0.01 | comparable or even higher activity | 1 to 10 | CCc1nc(C)sc1C(=O)Nc1nc2cc(C(N)=O)cc(SC)c2n1C/C=C/Cn1c(NC(=O)c2cc(C)nn2CC)nc2cc(C(N)=O)cc(OCCCN3CCOCC3)c21 [Example 5] | overlap |  |  | 
0.1 to 1 | 0.01 to 0.1 |  | 1 to 10 | CCc1nc(C)sc1C(=O)Nc1nc2cc(C(N)=O)cc(OCCCN3CCN(CC)CC3)c2n1C/C=C/Cn1c(NC(=O)c2cc(C)nn2CC)nc2cc(C(N)=O)cc(SC)c21 [Example 17] | overlap |  |  | 
0.1 to 1 | 0.01 to 0.1 |  | 1 to 10 | CCc1nc(C)sc1C(=O)Nc1nc2cc(C(N)=O)cc(OC)c2n1C/C=C/Cn1c(NC(=O)c2cc(C)nn2CC)nc2cc(C(N)=O)cc(OCCCN3CCN(C(C)=O)CC3)c21 [Example 29] |  |  | overlap | 
